Several values for one entry are separate records, joined by “and”; a condition that tells them apart may be missing. Equal values may be shown once.
What was measured:
Format in all cases: in vivo
[1] = test system: IDH1(R132H) primary human AML cells; assay: AML clearance in peripheral blood (flow cytometry, % hCD33+hCD45+ of total white cells), human AML PDx models in NSG mice
Experimental: (§1) Compounds and Formulation. For in vivo studies, each test article is prepared at an appropriate concentration with vehicle. […] Compound A is prepared fresh at the appropriate concentrations with vehicle every 7 days and stored at 4° C. between doses. […] Cytarabine is prepared fresh weekly by dilution with sterile saline from stock solution of Cytarabine (injection 20 mg/mL, (Pfizer injectables')). Azacitidine (Sigma, Lot #MKBR7212) is formulated in sterile water and is prepared fresh daily immediately before dosing. In vivo human AML PDx models. […] Two models are used in the studies: […] As needed, splenocytes from tumor-bearing mice are used to propagate and expand the models, as described. Each test article is prepared as described above at an appropriate concentration with vehicle to give animals the doses tested in this study at a dosing volume of 10 μL/gram body weight. Mice receiving Compound A (PO, QD) are treated at the indicated doses for the duration of the study. The combination agents are dosed as follows: […] Treated mice are assessed in comparison to vehicle treated and naïve (non-tumor bearing) control mice. Body weight is recorded twice per week. […] AML PDx model propagation. […] Spleens are processed and splenocytes isolated as described below. Two hundred μL per subject of the splenocyte prep is injected IV (intravenous, tail vein) into recipient NSG mice. […] Once engraftment is confirmed, the mice are monitored biweekly until ready to be put on study. […] Submandibular blood is collected. Spleen/Splenocyte Processing and Prep. After excision, a spleen is weighed, and […] is placed in a standard sterile 15 mL polypropylene conical tube containing PBS, and placed on ice. […] The spleen is placed in ice cold sterile PBS in a 15 mL collection tube. The spleen is removed from the collection tube and placed in a 100 micron 50 mL conical tube cell strainer (BD Falcon #352360). The spleen is processed by gentle rubbing of the spleen tissue against the surface of the cell strainer with the end of a 5 mL syringe plunger in a circular motion. The surface of the strainer is rinsed with 10 mL room temperature sterile DPBS (HyClone SH30028) 3 times during the process. […] The cell pellet is collected by centrifugation (300×g) and washed three times with 30 mL sterile DPBS. The cells are counted and resuspended in DPBS at the desired implant concentration. Bone Marrow Collection. […] Flow cytometry analysis of human white cells. Submandibular blood samples from in vivo studies are collected. Fluor-conjugated antibody stains are added according to the manufacturer's instructions (anti-human CD33-PE (clone WM53, BD Cat #555450), anti-human CD14-APC (clone MφpP9, BD Cat #340436), anti-human CD15-V450 (clone HI98, BD Cat #561584), anti-human CD117-BV421 (clone YB5.B8, BD Cat #562434), anti-human […]7 (clone ICRF44, BD Cat #557754), anti-human […]7 (clone HI30, BD Cat #557748), and anti-human CD3-FITC (clone SK7, BD Cat #340542)). The samples are incubated for 30 minutes at room temperature, protected from light. After the incubation, 1.5 mL 1×BD Lyse/Fix (37° C., (BD #558049)) is added to each sample and incubated for 12 minutes at room temperature. The tubes are centrifuged at 300×g for 7 minutes. BD Lyse/Fix solution is aspirated and the cell pellet washed with stain/wash buffer 3 times (1 wash step consisted of: pellet resuspended in 3 mL stain/wash buffer, centrifuged at 300×g, aspirated wash). Fixed cells are then resuspended in 300 to 400 μL stain/wash buffer. Samples are analyzed on a Becton Dickinson FACSVerse Flow cytometer (Cat #651155 Serial #Z6511550447) using standard flow cytometry principles and techniques. Samples are analyzed on the same day as they are stained and fixed. Population gating and data analysis of percent population are performed in the FACSuite software on the FACSVerse cytometer. Percent population values from the data analysis are plotted in Graphpad Prism or in JMP13. […]

[2] = test system: IDH1(R132H) primary human AML cells; assay: Bone marrow AML clearance (flow cytometry), human AML PDx models in NSG mice; conditions: for Bone Marrow AML Clearance: % hCD33 + hCD45+ (% of white cells) / Bone Marrow AML Clearance: % hCD45+ (% of white cells): QD, PO, each line one animal
Experimental: as §1

[3] = test system: IDH1(R132H) primary human AML cells; assay: AML cell differentiation in blood (flow cytometry, % hCD33+hCD11b+ of hCD45+ cells), human AML PDx models in NSG mice; conditions: for AML cell differentiation (% hCD33 + hCD11b+ (of hCD45+ cells)): QD, PO
Experimental: as §1

## C=CC(=O)N1CCN([C@@H](CC2CC2)c2ccc([C@H](C)Nc3ncc4c(n3)N(CC)C(=O)OC4)cc2)CC1 [Compound A, 7-[[(1S)-1-[4-[(1S)-2-cyclopropyl-1-(4-prop-2-enoylpiperazin-1-yl)ethyl]phenyl]ethyl]amino]-1-ethyl-4H-pyrimido[4,5-d][1,3]oxazin-2-one]
[1]; day 64, group B: 1 mg Compound A, vehicle 67%
  % peripheral blood AML cells (treatment group value): 51%
[1]; day 64, group C: 10 mg Compound A, vehicle 67%
  % peripheral blood AML cells (treatment group value): 1.1%
[1]; day 78, group B: 1 mg Compound A, vehicle 129%
  % peripheral blood AML cells (treatment group value): 65%
[1]; day 78, group C: 10 mg Compound A, vehicle 129%
  % peripheral blood AML cells (treatment group value): 0.66%
[2]; 1 mg/kg Compound A
  Bone Marrow AML Clearance: % hCD33 + hCD45+ (% of white cells): 87.74% and 92.23%
  Bone Marrow AML Clearance: % hCD45+ (% of white cells): 88.34% and 92.36%
[2]; 3.3 mg/kg Compound A, Table 1C
  Bone Marrow AML Clearance: % hCD33 + hCD45+ (% of white cells): 98.6% and 44.3% and 98.54% and 86.55%
  Bone Marrow AML Clearance: % hCD45+ (% of white cells): 98.36% and 43.99% and 98.15% and 86.21%
[2]; 3.3 mg/kg Compound A, Table 2C
  Bone Marrow AML Clearance: % hCD33 + hCD45+ (% of white cells): 72.73% and 84.3% and 99.41% and 91.97%
  Bone Marrow AML Clearance: % hCD45+ (% of white cells): 72.6% and 84.16% and 99.3% and 91.11%
[2]; 10 mg/kg Compound A
  Bone Marrow AML Clearance: % hCD33 + hCD45+ (% of white cells): 8.65% and 4.27% and 1.09% and 0.78% and 1.84%
  Bone Marrow AML Clearance: % hCD45+ (% of white cells): 8.66% and 4.28% and 1.11% and 0.78% and 1.85%
[2]; group B: 1 mg Compound A, vehicle 86%
  % human AML cells in bone marrow (of white cells; lower = more clearance): 90%
[2]; group B: Compound A (3.3 mg/kg), azacitidine study, vehicle 94%
  % human AML cells in bone marrow (of white cells; lower = more clearance): 87%
[2]; group B: Compound A (3.3 mg/kg), cytarabine study, vehicle 94%
  % human AML cells in bone marrow (of white cells; lower = more clearance): 78%
[2]; group C: 10 mg Compound A, vehicle 86%
  % human AML cells in bone marrow (of white cells; lower = more clearance): 2.3%
[3]; B: 1 mg/kg Compound A, treatment day −8 (before treatment), one animal
  AML cell differentiation (% hCD33 + hCD11b+ (of hCD45+ cells)): 19.01% and 16.75%
[3]; Treatment day 2, 3.3 mg/kg Compound A, Table 2B, each value one animal, 3.3 mg/kg
  AML cell differentiation (% hCD33 + hCD11b+ (of hCD45+ cells)): 14.12% and 16.05% and 13.27% and 10.34% and 11.59% and 13.32% and 14.01%
[3]; Treatment day 15, 3.3 mg/kg Compound A, Table 2B, each value one animal, 3.3 mg/kg
  AML cell differentiation (% hCD33 + hCD11b+ (of hCD45+ cells)): 33.42% and 27.78% and 36.01% and 28.02% and 28.21% and 29.24% and 33.82%
[3]; Treatment day 18, 3.3 mg/kg Compound A, each value one animal, 3.3 mg/kg
  AML cell differentiation (% hCD33 + hCD11b+ (of hCD45+ cells)): 23.96% and 27.78% and 22.27% and 22.38% and 22.41% and 29.38% and 24.62%
[3]; Treatment day 28, 3.3 mg/kg Compound A, Table 2B, each value one animal, 3.3 mg/kg
  AML cell differentiation (% hCD33 + hCD11b+ (of hCD45+ cells)): 35.79% and 36.46% and 33.59% and 39.91% and 37.16% and 40.47%
[3]; Treatment day 34, 3.3 mg/kg Compound A, each value one animal, 3.3 mg/kg
  AML cell differentiation (% hCD33 + hCD11b+ (of hCD45+ cells)): 30.68% and 27.59% and 29.94% and 25.81% and 29.79% and 34.39% and 29.26%
[3]; Treatment day 43, 3.3 mg/kg Compound A, Table 2B, each value one animal, 3.3 mg/kg
  AML cell differentiation (% hCD33 + hCD11b+ (of hCD45+ cells)): 37.51% and 35.22% and 33.33% and 36.61% and 41.32% and 33.68% and 39.34%
[3]; Treatment day 47, 3.3 mg/kg Compound A, each value one animal, 3.3 mg/kg
  AML cell differentiation (% hCD33 + hCD11b+ (of hCD45+ cells)): 37.61% and 35.31% and 38.58% and 39.61% and 31.81% and 41.02% and 35.79%
[3]; Treatment day 58, 3.3 mg/kg Compound A, Table 2B, each value one animal, 3.3 mg/kg
  AML cell differentiation (% hCD33 + hCD11b+ (of hCD45+ cells)): 42.9% and 44.03% and 33.47% and 48.08% and 47.13% and 40.2% and 26.62%
[3]; Treatment day 61, 3.3 mg/kg Compound A, each value one animal, 3.3 mg/kg
  AML cell differentiation (% hCD33 + hCD11b+ (of hCD45+ cells)): 37.61% and 40.23% and 40.06% and 33.82% and 32.55% and 43.95% and 44%
[3]; Treatment day 75, 3.3 mg/kg Compound A, each value one animal, 3.3 mg/kg
  AML cell differentiation (% hCD33 + hCD11b+ (of hCD45+ cells)): 33.98% and 35.9% and 31.38% and 37.53% and 34.66% and 51.92%
[3]; Treatment day 77, 3.3 mg/kg Compound A, Table 2B, each value one animal, 3.3 mg/kg
  AML cell differentiation (% hCD33 + hCD11b+ (of hCD45+ cells)): 56.29% and 46.83% and 42.98% and 48.3% and 51.69% and 48.56%
[3]; Treatment day 89, 3.3 mg/kg Compound A, each value one animal, 3.3 mg/kg
  AML cell differentiation (% hCD33 + hCD11b+ (of hCD45+ cells)): 21.32% and 43.96% and 40.34% and 28.57% and 37.17% and 45.68%
[3]; Treatment day 98, 3.3 mg/kg Compound A, Table 2B, each value one animal, 3.3 mg/kg
  AML cell differentiation (% hCD33 + hCD11b+ (of hCD45+ cells)): 44.09% and 47.66% and 33.67% and 36.45% and 33.6%
[3]; Treatment day −3, 3.3 mg/kg Compound A, each value one animal, 3.3 mg/kg
  AML cell differentiation (% hCD33 + hCD11b+ (of hCD45+ cells)): 11.93% and 12% and 13.59% and 13.22% and 11.07% and 13.07%
[3]; Treatment day −19, 3.3 mg/kg Compound A, Table 2B, each value one animal, 3.3 mg/kg
  AML cell differentiation (% hCD33 + hCD11b+ (of hCD45+ cells)): 1.45% and 2.19% and 0.38% and 2.21% and 0.64% and 0.34% and 0.68%
[3]; day 43, group B: Compound A (3.3 mg/kg), azacitidine study, vehicle 15%
  % AML cell differentiation (treatment group value): 37%
[3]; day 47, group B: Compound A (3.3 mg/kg), cytarabine study, vehicle 10%
  % AML cell differentiation (treatment group value): 37%
[3]; day 50, group B: 1 mg Compound A, vehicle 28%
  % AML cell differentiation (treatment group value): 43%
[3]; day 50, group C: 10 mg Compound A, vehicle 28%
  % AML cell differentiation (treatment group value): 79%

— patent US12440493B2, “Combination therapy for treating cancer comprising substituted piperazines” (Eli Lilly and Company, priority 2020, dated 2025)
